Experimental data taken from patent US20150141460A1, “Anti-inflammatory Compositions” (Cambridge Enterprise Limited, priority 2007, published 2015).

Experiments:
leukocytes in BAL fluid = test: Ovalbumin-induced lung inflammation model of asthma, cell counts in BAL fluid; assay type: in vivo, Brown Norway rats; settings: 0.3 mg/kg daily by oral gavage day 8 to 21; p<0.01
From the text: Bars represent mean cell counts, shown on the Y axis in units of 10^6 cells, for groups of […] with whiskers representing SEM; * p<0.01 versus ‘sensitised’ using Student's unpaired t-test assuming equal variance, with two tails). The horizontal line represents the average number of leukocytes present in BAL fluid from the lungs of unchallenged rats. All rats in the remaining three groups received the same sensitisation and challenge regimen, but were either treated with vehicle only (‘Sensitised’), or with compound (I′) at 0.3 mg/kg bodyweight or with monteleukast (‘Singulair™’) at 30 mg/kg bodyweight, all administered daily by oral gavage.
Adult Brown Norway rats (200-300 g body weight; n=10 per group) were sensitised by a single intraperitoneal injection of 0.1 mg Ovalbumin on day 0. Each rat then received an intratracheal challenge with a solution of 1% ovalbumin (w/v) on day 8, and with 2% ovalbumin (w/v) on days 15, 18 and 21. The animals were then sacrificed 3 hours after the final challenge on day 21. […]
On sacrifice, total lung leukocyate recruitment was assessed by performing a broncheoalveolar lavage (BAL) using 4 lots of 3 ml sterile phosphate-buffered saline introduced through a tracheal cannula. For each animal, the BAL washes were combined, and the total cell population counted (using a haemocytometer). […]

[1] = molecular target: target receptor (site of specific interaction of BN83250) (Homo sapiens, UniProt P30874); test: Competition for binding of [3H]-BN83250 to the target receptor on human myelomonocytic cell line; settings: competition with 10 nM [3H]-BN83250; non-linear modelling
Method: In this experiment, each reaction received 10 nM labelled BN83250 (a lactam BSCI which binds to the same receptor as compound (I′)), together with various competitors (100 μM-1 pM). The total specific binding was the amount displaced by a large excess (100 μM). Each bar represents the mean of three replicate determinations, with whiskers representing SEM. The Y-axis represents the radioactive counts bound in each experiments in units of counts per minute (cpm). The upper dashed line represents the total binding under the conditions of the experiment, while the lower dashed line represents the non-specific binding; the specific binding is represented by the distance between the dashed lines.
The general pharmacology of the five compounds was assessed, both against the specific target receptor, and against a wide variety of other receptors, many related in structure to the target receptor. Specific binding to the target receptor was assessed by competition for the binding of [^3H]-BN83250 (BN83250 is (S)-3-(2′,2′-dimethyldodecanoylamino)-caprolactam; Fox et al. J Med Chem. […]; 48(3):867-74; an agent known to bind to the same target receptor as the lactam BSCIs disclosed here). Binding to non-target receptors was assessed by competition for the binding of various specific radioligands for other receptors which are well known in the art. […]

Sequence of target receptor (site of specific interaction of BN83250) (P30874 whole entry): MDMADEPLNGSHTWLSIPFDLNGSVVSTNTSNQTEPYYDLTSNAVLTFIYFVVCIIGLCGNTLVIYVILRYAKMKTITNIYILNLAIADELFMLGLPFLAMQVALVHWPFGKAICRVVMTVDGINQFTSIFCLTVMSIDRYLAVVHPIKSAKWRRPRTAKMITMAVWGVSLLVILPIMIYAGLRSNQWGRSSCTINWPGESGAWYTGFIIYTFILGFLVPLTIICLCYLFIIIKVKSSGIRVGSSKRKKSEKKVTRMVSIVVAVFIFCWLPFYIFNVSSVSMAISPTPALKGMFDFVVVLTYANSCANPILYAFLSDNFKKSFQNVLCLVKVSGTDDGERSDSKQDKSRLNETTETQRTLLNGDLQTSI

CC(C)(C)C(=O)N[C@H]1CCCNC1=O [Compound (I′), (S)-3-(2′,2′-dimethylpropanoylamino)-tetrahydropyridin-2-one]
reduction of the number of leukocytes in the BAL washes (leukocytes in BAL fluid): 70% | Ka at target receptor (pM) [1]: 50 pM
